Test results reported in patent US20200299671A1, “IMMOBILIZED MULTI-ENZYMATIC HALOGENATION SYSTEM” (priority 2019, published 2020).

How the values were obtained:
PltM [1] = target: T1, PltM (Pseudomonas protegens, UniProt Q4KCZ3); assay: Halogenating competition assays in 1:1 or 10:1 mixtures of two halide salts (Assay 2a-2e), LC-MS; type: biochemical
Experimental: To establish if hetero-dihalogenation by PltM could be observed, halogenating competition assays in 1:1 or 10:1 mixtures of two different halide salts were performed (Assay 2). The reactions contained the same components as above except single halide salts were replaced with either a 1:1/NaCl:NaBr (Assay 2a), 1:1/NaCl:NaI (Assay 2b), or 1:1/NaBr:NaI (Assay 2c) mixtures (100 mM of each halide). The reactions were initiated by adding NADPH under N2. A 1:1/NaCl:NaBr reaction was also performed with 200 mM of each halide to test occurrence of homo-di- or hetero-chlorination/bromination, and 10:1/NaCl:NaI (Assay 2d) and 10:1/NaBr:NaI (Assay 2e) mixtures with 200 mM of NaCl or NaBr and 20 mM of NaI were tested to check whether chlorination or bromination could occur in the presence of iodide and whether iodination can occur with chlorination or bromination to yield a C1,I-substrate or Br,I-substrate. The reactions were incubated and processed as described above in Assay 1.
(§1) The halogenation reaction products were analyzed by HPLC or LC-MS by injecting 10 μL of each sample. The compounds were separated by Reversed-phase HPLC at the flow rate of 0.2 mL/min by using the following program: eluent A=H2O; eluent B=MeCN; gradient=2% B for 5 min, increase to 100% B over a 30 min period, stay at 100% B for 9 min, decrease to 2% B over a 1 min period, and re-equilibrate the column at 2% B for 30 min.
(§2) For HPLC analysis, the molecules were observed by absorbance at λ=275 nm as described above. As necessary, the following mass spectrometer was operated in negative and positive modes with the following parameters: For negative mode, mass range, 80-600 m/z in profile mode; temperature, 550° C. and ion spray voltage floating, −4500 V, and for positive mode, mass range, 80-600 m/z in profile mode; temperature, 550° C. and ion spray voltage floating, 4500 V. The presence of each compound was analyzed by extracted ion chromatograph (XIC) with the expected mass ±0.05 Da for Assay 1 and Assay 2 and ±0.005 Da for Assay 3 (FIGS. 2A-C, 8-13, and 17-37; Tables 3-4 and 7).

PltM [2] = target: T1, PltM; assay: Optimized in vitro PltM halogenation assay (PltM, SsuE, GDH), overnight overall yield by HPLC; type: biochemical; details: optimized in vitro conditions
Experimental: To increase production of halogenated molecules and decrease the amount of NADPH required, the above in vitro assay was optimized by using an additional enzyme, glucose dehydrogenase (GDH). […] The overall yield of halogenation products was determined for reactions run overnight for several substrates (Table 8). Conversion of the substrate to halogenated products was monitored by HPLC at λ=275-320 nm, where the absorbance of molecules is not affected by halogenation, and quantified as fraction of reaction species (%).
The time course experiments were performed in duplicate. Compound 1 was unstable under these optimized conditions, and it was not tested. The in vitro analysis of K87A mutant was performed overnight in 100 μL reaction mixture by using the compound 11 as a substrate. Wild-type PltM was used as a positive control, and no enzyme reaction was used as a negative control. In all above reactions, the compounds were extracted with EtOAc (4×100 μL) and dried under gentle air flow.
as §1, §2

PltM [3] = assay: Cell-based activity assay of PltM (Assay 3), wild-type PltM; parameters: species or system E. coli BL21 (DE3); details: cells expressing wild-type PltM; 1 added to culture
Experimental: (§3) E. coli BL21 (DE3) cells were transformed with ppltM-pET28a, ppltMK87A-pET28a, ppltML111Y-pET28a, ppltMS404Y-pET28a, and ppltA-pET28a. The ppltA-pET28a plasmid overexpressing the halogenase PltA whose substrate is pyrrolyl-S-PltL (a peptidyl carrier protein-linked pyrrole) was used as a negative control. Five colonies from each transformant were cultured in 2×500 mL of LB medium (for ppltM-pET28a, ppltML111Y-pET28a, and ppltMS404Y-pET28a) and 1×500 mL of LB medium (for ppltMK87A-pET28a and ppltA-pET28a) with 50 μg/mL kanamycin at 37° C. and 200 rpm until attenuance of 0.2 at 600 nm. The cultures were then moved to 25° C. until attenuance of 0.5. Protein expression was induced by adding 0.2 mM IPTG to all […] flasks, and the cultures were incubated with shaking for 1 h. 12.5 μg/mL of compound 1 was added to 1×500 mL of LB medium containing ppltM-pET28a, ppltMK87A-pET28a, ppltML111Y-pET28a, ppltMS404Y-pET28a, and ppltA-pET28a. Compound 1 was not added to the three remaining flasks (negative controls). After additional incubation for 20 h, the cells were pelleted at 5,000 g for 10 min, and the supernatant was collected. The supernatant was extracted with EtOAc (3×330 mL), which was dried in vacuo. […]
(§4) The halogenation reaction products were analyzed by HPLC or LC-MS by injecting 10 μL of each sample. […]
(§5) For HPLC analysis, the molecules were observed by absorbance at λ=275 nm as described above. […]

PltM L111Y = assay: Cell-based activity assay (Assay 3), PltM L111Y; parameters: species or system E. coli BL21 (DE3); details: cells expressing L111Y mutant
Experimental: as §3, §4, §5

PltM S404Y = assay: Cell-based activity assay (Assay 3), PltM S404Y; parameters: species or system E. coli BL21 (DE3); details: cells expressing S404Y mutant
Experimental: as §3, §4, §5

PltA = target: T2, PltA (Pseudomonas fluorescens, UniProt Q4KCZ0); assay: Cell-based activity assay (Assay 3), PltA negative control; parameters: species or system E. coli BL21 (DE3); details: cultures expressing PltA (negative control)
T2 construct: expressed in transfected cells; host or cells: E. coli BL21 (DE3)
Experimental: as §3, §4, §5

T1 sequence (Q4KCZ3 entry or part of it): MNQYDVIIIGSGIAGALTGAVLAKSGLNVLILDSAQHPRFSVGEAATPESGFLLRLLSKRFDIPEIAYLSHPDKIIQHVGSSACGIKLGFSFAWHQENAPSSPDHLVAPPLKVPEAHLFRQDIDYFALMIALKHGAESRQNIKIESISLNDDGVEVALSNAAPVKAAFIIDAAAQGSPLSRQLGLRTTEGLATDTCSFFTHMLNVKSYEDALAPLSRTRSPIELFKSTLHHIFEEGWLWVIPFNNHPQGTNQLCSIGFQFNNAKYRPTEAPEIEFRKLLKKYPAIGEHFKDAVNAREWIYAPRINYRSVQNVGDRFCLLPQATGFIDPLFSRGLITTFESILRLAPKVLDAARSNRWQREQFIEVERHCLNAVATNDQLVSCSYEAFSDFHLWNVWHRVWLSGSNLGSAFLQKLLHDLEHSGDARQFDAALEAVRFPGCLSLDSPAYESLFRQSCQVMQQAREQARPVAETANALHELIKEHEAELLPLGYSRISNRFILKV
T2 sequence (Q4KCZ0 whole entry): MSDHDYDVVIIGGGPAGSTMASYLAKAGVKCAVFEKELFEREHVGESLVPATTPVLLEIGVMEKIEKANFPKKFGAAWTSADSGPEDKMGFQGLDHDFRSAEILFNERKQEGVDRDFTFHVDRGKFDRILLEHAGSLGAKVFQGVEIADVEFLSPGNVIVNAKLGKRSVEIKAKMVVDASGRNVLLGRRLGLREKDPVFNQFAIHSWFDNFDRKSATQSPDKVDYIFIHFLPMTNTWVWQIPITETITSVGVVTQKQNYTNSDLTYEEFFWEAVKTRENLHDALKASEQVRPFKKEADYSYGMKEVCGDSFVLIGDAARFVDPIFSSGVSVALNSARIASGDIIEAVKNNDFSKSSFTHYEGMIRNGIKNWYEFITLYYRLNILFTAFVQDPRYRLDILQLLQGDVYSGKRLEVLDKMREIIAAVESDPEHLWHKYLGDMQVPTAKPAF

With `Oc1cc(O)cc(O)c1` [Compound 1, phloroglucinol] the “products of competitive halogenation” value (PltM [1]; 10-fold molar excess of NaBr over NaI) was “mono-brominated, mono-iodinated, and diiodinated 1 were identified”, the “products of competitive halogenation” value (PltM [1]; 10-fold molar excess of NaCl over NaI) was “all possible mono- and dihalogenated products were identified, including chloro-iodinated 1” and the “products of competitive halogenation” value (PltM [1]; two halides (Cl/Br, Cl/I or Br/I) at equimolar ratios) was “mono-halogenated products of either halogen and diiodinated 1 where NaI was used”. For the same molecule, the “stability under optimized reaction conditions” value (PltM [2]) was “unstable”, the “halogenation in fermentation culture” value (PltM [3]) was “generated mono- and dichlorinated 1” and the “halogenation in fermentation culture” value (PltM L111Y) was “product yield was significantly reduced compared to wild-type”. The “halogenation in fermentation culture” value (PltM S404Y) was “product yield was significantly reduced compared to wild-type” and the “halogenation in fermentation culture” value (PltA) was “No halogenated product was observed”.
